Measured values taken from the NIST ThermoML archive (doi:10.1016/j.jct.2004.09.014).

Test: xn = mol fraction of the nth substance listed
Settings: 101.3 kPa, Liquid

COCCOCCO [2-(2-methoxyethoxy)ethanol] + CCOC(C)(C)C
mass density [kg/m3]
Settings	293.15 K	298.15 K	303.15 K	308.15 K	313.15 K
x2 = 0	1020.8	1016.4	1011.83	1007.69	1003.22
x2 = 0.0501	1008.17	1003.25	998.3	993.76	988.94
x2 = 0.1	995.15	990.04	984.9	980.19	975.19
x2 = 0.1459	982.68	977.43	972.25	967.46	962.35
x2 = 0.1998	967.77	962.42	957.22	952.39	947.16
x2 = 0.2556	951.99	946.59	941.41	936.49	931.19
x2 = 0.3031	938.38	932.91	927.71	922.72	917.37
x2 = 0.3521	924.22	918.7	913.47	908.42	902.96
x2 = 0.4004	910.16	904.58	899.35	894.26	888.75
x2 = 0.4511	895.34	889.68	884.41	879.28	873.72
x2 = 0.4998	881.09	875.34	870.08	864.91	859.34
x2 = 0.5628	862.65	856.89	851.64	846.47	840.9
x2 = 0.5997	851.96	846.15	840.91	835.75	830.21
x2 = 0.6621	833.91	828.16	822.99	817.83	812.29
x2 = 0.6997	823.14	817.44	812.33	807.17	801.6
x2 = 0.7411	811.55	805.81	800.69	795.54	790.02
x2 = 0.7995	795.39	789.63	784.53	779.35	773.85
x2 = 0.8401	784.28	778.52	773.45	768.28	762.75
x2 = 0.8998	768.16	762.41	757.39	752.25	746.7
x2 = 0.9498	754.72	748.99	744.04	738.99	733.52
